Patent publication US20250268909A1, “Combination Therapy” (US Oncology Corporate, Inc., priority 2022, published 2025)
“And” between values parts separate entries of the source, which are not always exact repeats. Equal values may be shown once.

Experiments:
Assay type in all cases: in vivo, human
[1] = phase II trial, adverse events (safety population, CTCAE v4.03)
Description: Safety was assessed throughout the study. Adverse events were graded and reported according to the National Cancer Institute Common Terminology Criteria for Adverse Events (CTCAE version 4.03).

[2] = tested on: ER-positive, HER2-negative metastatic or locally recurrent breast cancer; assay: randomized phase II trial, ER+/HER2− cohort, efficacy
Text: Other information about this phase II clinical trial is included in O'Shaughnessy et al., JAMA Network Open. 2021, 4(4):e214103, the entire contents of which are incorporated herein by reference.
Eligible patients were postmenopausal women aged 18 years or older with metastatic or unresectable locally recurrent breast cancer that was histologically confirmed as ER+/HER2− invasive breast cancer (any progesterone receptor status), with Ki67 greater than 15% in primary or metastatic tissue, or grade 3 TNBC, to enrich for more highly proliferative cancers that may be more dependent on AURKA. HER2− negative was defined as immunohistochemistry (IHC) status of 0, 1+, or 2+(if IHC was 2+, a negative FISH test was required with a ratio <2.0 and an average HER2 copy number <4.0 signals/cell). ER-negative and progesterone receptor (PR)-negative status was defined as ER and PR less than 1% nuclei positive by IHC. […] An Eastern Cooperative Group (ECOG) performance status of 0 or 1 and adequate hematologic, cardiac, renal, and liver function were required. Eligible patients were required to have measurable disease by Response Evaluation Criteria in Solid Tumors (RECIST v 1.1) criteria, or lytic or mixed blastic/lytic bone-only disease. Patients with untreated or progressing brain metastases, or those who required corticosteroids, were not eligible.
(§1) Administration of 5 μg/kg filgrastim was allowed for treatment-limiting neutropenia, and loperamide was used to treat diarrhea but was not allowed prophylactically in cycle 1.
Computed tomography (CT) of chest, abdomen, and pelvis was performed at screening. Chest and abdominal CT imaging were then performed every 8 weeks after initiation of treatment for the first 32 weeks of treatment and every 12 weeks thereafter for the duration of the treatment period, and at End of Treatment (EoT). Pelvic CT imaging was obtained at subsequent tumor assessments only if pelvic metastases were identified at screening. Bone scans were obtained on all patients at screening and then every 12 weeks in patients with bone metastases on their baseline bone scan.
Patients were stratified as ER-positive, HER2-negative cohort and TN cohort based on results of ER, progesterone receptor, and HER2 measurements on their metastatic tissue, or, if not available, on their primary breast cancer tissue.
Patients' baseline demographic and disease characteristics were summarized for the intent-to-treat population, which included all patients registered on study and were described by means with SDs and medians with ranges for continuous variables and by numbers with percentages for categorical variables. PFS was defined as the time from date of registration in the study to the date of first progression of disease or the date of death. Patients whose disease had not progressed were censored at the last contact date. OS was measured from the date of registration to the date of death. PFS and OS were estimated using Kaplan-Meier methods with 95% CIs in the intent-to-treat population and compared by log-rank tests.
The protocol-defined evaluable population included all eligible patients who received at least 1 dose of study drug. CBR and ORR were examined using univariate and multivariate approaches with Fisher exact tests and the logistic regression models. The 95% CIs were estimated for CBR and ORR assuming binomial distribution. A χ^2 test was used to estimate the differences between CBRs and ORRs in the two arms.

[3] = phase II trial, dose modifications in ER+/ERBB2-negative cohort (safety population)
Description: as §1
Incidence and grades of AEs for all patients were analyzed using the safety population which included all patients (eligible and ineligible) who received at least 1 dose of study drug. Toxic effects were reported and tabulated by numbers and frequencies for all related AEs. SAS statistical software version 9.4 (SAS Institute) was used for all data analysis. Data were analyzed from March through May 2019.

[4] = treatment-related, ER+/HER2− and TN cohorts
[5] = ER+/HER2− cohort, evaluable patients (P+A n=58, P n=62)
[6] = Arm 1 (paclitaxel plus alisertib), n=66

CC(=O)O[C@H]1C(=O)[C@@]2(C)[C@H]([C@H](OC(=O)c3ccccc3)[C@]3(O)C[C@H](OC(=O)[C@H](O)[C@@H](NC(=O)c4ccccc4)c4ccccc4)C(C)=C1C3(C)C)[C@]1(OC(C)=O)CO[C@@H]1C[C@@H]2O [Paclitaxel, (2α,4α,5β,7β,10β,13α)-4,10-Bis(acetyloxy)-13-{[(2R,3S)-3-(benzoylamino)-2-hydroxy-3-phenylpropanoyl]oxy}-1,7-dihydroxy-9-oxo-5,20-epoxytax-11-en-2-yl benzoate]
grade 3 or 4 anemia, patients ([1]; all patients combined): 1.2%
grade 3 or 4 diarrhea, patients ([1]; all patients combined): 0%
grade 3 or 4 neutropenia, patients ([1]; all patients combined): 16.4%
grade 3 or 4 stomatitis or oral mucositis, patients ([1]; all patients combined): 0%
grade 3 or 4 neuropathy, patients ([1]; in vivo): 11.40%
patients who received standard-dose (5 μg/kg) filgrastim ([1]; in vivo): 15.70%
Anemia Grade1 [1, 4]: 5 (5.9) n (%)
Anemia Grade2 [1, 4]: 5 (5.9) n (%)
Anemia Grade3 [1, 4]: 1 (1.2) n (%)
Anemia Grade4 [1, 4]: 0 n (%)
Anemia Total [1, 4]: 11 (12.9) n (%)
Diarrhea Grade1 [1, 4]: 9 (10.6) n (%)
Diarrhea Grade2 [1, 4]: 2 (2.4) n (%)
Diarrhea Grade3 [1, 4]: 0 n (%)
Diarrhea Grade4 [1, 4]: 0 n (%)
Diarrhea Total [1, 4]: 11 (12.9) n (%)
Dizziness Grade1 [1, 4]: 2 (2.4) n (%)
Dizziness Grade2 [1, 4]: 0 n (%)
Dizziness Grade3 [1, 4]: 0 n (%)
Dizziness Grade4 [1, 4]: 0 n (%)
Dizziness Total [1, 4]: 2 (2.4) n (%)
Fatigue Grade1 [1, 4]: 26 (30.6) n (%)
Fatigue Grade2 [1, 4]: 6 (7.1) n (%)
Fatigue Grade3 [1, 4]: 2 (2.4) n (%)
Fatigue Grade4 [1, 4]: 0 n (%)
Fatigue Total [1, 4]: 34 (40.0) n (%)
Febrile neutropenia Grade1 [1, 4]: 0 n (%)
Febrile neutropenia Grade2 [1, 4]: 0 n (%)
Febrile neutropenia Grade3 [1, 4]: 0 n (%)
Febrile neutropenia Grade4 [1, 4]: 0 n (%)
Febrile neutropenia Total [1, 4]: 0 n (%)
Headache Grade1 [1, 4]: 4 (4.7) n (%)
Headache Grade2 [1, 4]: 1 (1.2) n (%)
Headache Grade3 [1, 4]: 0 n (%)
Headache Grade4 [1, 4]: 0 n (%)
Headache Total [1, 4]: 5 (5.9) n (%)
Leukopenia Grade1 [1, 4]: 2 (2.4) n (%)
Leukopenia Grade2 [1, 4]: 1 (1.2) n (%)
Leukopenia Grade3 [1, 4]: 2 (2.4) n (%)
Leukopenia Grade4 [1, 4]: 0 n (%)
Leukopenia Total [1, 4]: 5 (5.9) n (%)
Mucositis oral Grade1 [1, 4]: 4 (4.7) n (%)
Mucositis oral Grade2 [1, 4]: 0 n (%)
Mucositis oral Grade3 [1, 4]: 0 n (%)
Mucositis oral Grade4 [1, 4]: 0 n (%)
Mucositis oral Total [1, 4]: 4 (4.7) n (%)
Nausea Grade1 [1, 4]: 19 (22.4) n (%)
Nausea Grade2 [1, 4]: 4 (4.7) n (%)
Nausea Grade3 [1, 4]: 1 (1.2) n (%)
Nausea Grade4 [1, 4]: 0 n (%)
Nausea Total [1, 4]: 24 (28.2) n (%)
Neuropathy Grade1 [1, 4]: 9 (12.9) n (%)
Neuropathy Grade2 [1, 4]: 8 (11.4) n (%)
Neuropathy Grade3 [1, 4]: 8 (11.4) n (%)
Neuropathy Grade4 [1, 4]: 0 n (%)
Neuropathy Total [1, 4]: 25 (35.7) n (%)
Neutropenia Grade1 [1, 4]: 1 (1.2) n (%)
Neutropenia Grade2 [1, 4]: 3 (3.5) n (%)
Neutropenia Grade3 [1, 4]: 11 (12.9) n (%)
Neutropenia Grade4 [1, 4]: 3 (3.5) n (%)
Neutropenia Total [1, 4]: 18 (21.2) n (%)
Stomatitis Grade1 [1, 4]: 7 (8.2) n (%)
Stomatitis Grade2 [1, 4]: 0 n (%)
Stomatitis Grade3 [1, 4]: 0 n (%)
Stomatitis Grade4 [1, 4]: 0 n (%)
Stomatitis Total [1, 4]: 7 (8.2) n (%)
Thrombocytopenia Grade1 [1, 4]: 0 n (%)
Thrombocytopenia Grade2 [1, 4]: 0 n (%)
Thrombocytopenia Grade3 [1, 4]: 0 n (%)
Thrombocytopenia Grade4 [1, 4]: 0 n (%)
Thrombocytopenia Total [1, 4]: 0 n (%)
median (IQR) PFS in patients previously treated with palbociclib ([2]; 30 patients pretreated with palbociclib for MBC (16 P, 14 P+A), listed as paclitaxel alone): 5.6 (3.0-10.6) months and 5.6 months
CBR in patients pretreated with palbociclib ([2]; ER+/HER2− cohort): 37.5%
Best Overall Response: CR [2, 5]: 0%
Best Overall Response: PD [2, 5]: 8 (12.9) %
Best Overall Response: SD [2, 5]: 33 (53.2) %
CBR (CR + PR + SD ≥ 6 months) ([2]; ER+/HER2− cohort, evaluable patients (P+A n=58, P n=62), listed as P): 35 (56.5) %
CBR (CR + PR + SD ≥ 6 months) ([2]; ER+/HER2− cohort, evaluable patients (P+A n=58, P n=62), listed as paclitaxel alone): 56.5%
estimated PFS at 12 months ([2]; ER-positive, HER2-negative MBC): 15.4%
median (IQR) PFS ([2]; ER-positive, HER2-negative MBC, intent-to-treat, listed as paclitaxel alone): 7.1 (3.8-10.6) months and 7.1 months
median (IQR) OS ([2]; median follow-up 22 months): 25.1 (11.0-31.4) months
Patients with both dose delay and reduction [3, 6]: (16.7) %
Patients with dose delay alone [3, 6]: (63.6) %
Patients with dose discontinuation [3, 6]: (16.7) %
Patients with dose increased [3, 6]: (3.0) %
Patients with dose reduction alone [3, 6]: (1.5) %
Patients with dose delay alone ([3]; Arm 1 (paclitaxel plus alisertib), n=66, listed as paclitaxel): 63.6%
Patients with both dose delay and reduction ([3]; Arm 2 (paclitaxel alone), n=70): (31.4) %
Patients with dose delay alone ([3]; Arm 2 (paclitaxel alone), n=70): (14.3) %
Patients with dose discontinuation ([3]; Arm 2 (paclitaxel alone), n=70): (11.4) %
Patients with dose increased ([3]; Arm 2 (paclitaxel alone), n=70): 0%
Patients with dose reduction alone ([3]; Arm 2 (paclitaxel alone), n=70): (2.9) %
Patients with both dose delay and reduction ([3]; Arm 2 (paclitaxel alone), n=70, listed as paclitaxel alone): 31.4%
